From patent publication US11859248B2, “Nucleic acid modification and identification method” (IMBA—INSTITUT FÜR MOLEKULARE BIOTECHNOLOGIE GMBH, priority 2017, dated 2024)
Like-named read-outs stand apart in the source and are kept apart here.

How the values were obtained:
[1] = tested on: mES cells; test: Cell viability assay (CellTiter-Glo) of mES cells cultured with s^4U; format: cell-based, mouse; settings: for EC50: Mus musculus, read-out: EC50 of compromised cell viability
Procedure: 5000 mES cells were seeded per 96 well the day before the experiment. Medium containing different concentrations of s^4U (as indicated) was added to the cells for 12 h or 24 h. Cell viability was assessed by CellTiter-Glo® Luminescent Cell Viability Assay (Promega) according to the instructions of the manufacturer. Luminescent signal was measured on Synergy using Gen5 Software (v2.09.1).
We tested the ability of mouse embryonic stem cells to tolerate s^4U metabolic RNA-labeling after 12 h or 24 h at varying s^4U concentrations (FIG. 6A). […] Under these conditions, we detected a steady increase in s^4U-incorporation in total RNA preparation 3 h, 6 h, 12 h, and 24 h post labeling, as well as a steady decrease 3 h, 6 h, 12 h, and 24 h after uridine chase (FIG. 6B). As expected, the incorporation follows a single exponential kinetics, with a maximum average incorporation of 1.78% s^4U, corresponding to one s^4U incorporation in every 56 uridines in total RNA (FIG. 6C). These experiments establish s^4U-labeling conditions in mES cells, which can be employed to measure RNA biogenesis and turnover rates under unperturbed conditions.

[2] = tested on: mES cells; test: mRNA 3' end sequencing (Quant-seq/SLAM-seq) of mES cells after s^4U metabolic labeling; format: cell-based, mouse
Procedure: (§1) mES cells were seeded the day before the experiment at a density of 10^5 cells/ml in 10 cm dishes. s^4U-metabolic labeling was performed by incubation of mES cells in standard medium but adding 100 μM s^4U or s^6G (SIGMA) from a 500 mM stock solution in water. During the metabolic labeling, s^4U or s^6G containing medium was exchanged every 3 h. For the uridine chase experiment, s^4U or s^6G containing medium was discarded, cells were washed twice with 1× PBS and incubated with standard medium supplemented with 10 mM uridine (SIGMA). […]
For analysis of mRNA 3′ end sequencing (Quant-seq) datasets, reads were demultiplexed using Picard Tools BamIndexDecoder v1.13 allowing 1 mismatch in the barcode. Five nucleotides at the 5′ end of demultiplexed reads were trimmed. Reads were aligned to mouse genome mm10 and alignments in annotated 3′ UTRs (Gencode) were counted using SLAMdunk (Neumann & Rescheneder, t-neumann.github.io/slamdunk/; Herzog et al., Nature Methods 14, 1198-1204 (2017)). Briefly, SLAMdunk relies on NextGenMap, a flexible and fast read mapping program, and was tailored using an adapted scoring scheme eliminating T>C mismatch penalties for the mapping step. T>C containing reads and non-T>C containing reads aligning to 3′ UTRs were quantified to deduce s^4U- or unlabeled transcript abundance, respectively. […]

[3] = tested on: mES cells; test: HPLC analysis of s^4U-incorporation into total RNA of mES cells after metabolic labeling; format: cell-based, mouse; settings: 100 μM s^4U, 24 h labeling
Procedure: Analysis of s^4U- or s^6G-incorporation into total RNA following metabolic labeling was performed as previously described by Spitzer et al. (Meth Enzymol. 539, 113-161 (2014)).
as §1, with “(SIGMA). Cells were directly lysed in TRIzol® (Ambion) and RNA was extracted following the manufacturer instructions except that 0.1 mM final concentration of DTT was added during isopropanol precipitation. RNA was resuspended in 1 mM DTT.” for “(SIGMA).”
We tested the ability of mouse embryonic stem cells to tolerate s^4U metabolic RNA-labeling after 12 h or 24 h at varying s^4U concentrations (FIG. 6A). […] Under these conditions, we detected a steady increase in s^4U-incorporation in total RNA preparation 3 h, 6 h, 12 h, and 24 h post labeling, as well as a steady decrease 3 h, 6 h, 12 h, and 24 h after uridine chase (FIG. 6B). […]

[4] = tested on: Drosophila S2 cells; test: Viability of Drosophila S2 cells under s^4U labeling conditions; format: cell-based, Drosophila melanogaster; settings: 500 μM, 24 h

O=c1[nH]c(=S)ccn1[C@@H]1O[C@H](CO)[C@@H](O)[C@H]1O [s^4U, 4-thiouridine]
effect on cell viability ([1]; 100 μM s^4U): did not severely affect cell viability
EC50 ([1]; 12 h labeling): 3.1 mM
EC50 ([1]; 24 h labeling): 0.38 mM
median s^4U-incorporation in mRNA (3' UTRs) ([2]; 24 h labeling): 2.56%
increase in T>C mutation rates ([2]; 24 h labeling vs unlabeled): 25 fold
maximum average s^4U incorporation in total RNA [3]: 1.78%
effect on cell viability [4]: do not interfere with cell viability
